In this assay the test system is HepG2 cells. The experiment in a line: Transduction enhancer Cyclosporin H in vitro testing (eGFP positive cells by flow cytometry). The format is cell-based. How it is done:
Due to the important relevance of the target tissue origin, HepG2 cells, a hepatic cell line, were used.
Three days after transduction, the percentage of eGFP positive cells was analysed by Flow Cytometry. All conditions were performed as triple experimental replicates.
On the technique in general: Flow cytometry measures light scatter and fluorescence of single cells or particles in a stream.

This is an account of results in patent EP4083217A1, “IN VIVO […] THERAPY FOR THE TREATMENT OF PRIMARY HYP[…] 1” (Centro de Investigaciones Energéticas, Medioambientales y …, priority 2021, dated 2022).

In the case of `C/C=C/C[C@@H](C)[C@@H](O)[C@H]1C(=O)N[C@@H](CC)C(=O)N(C)CC(=O)N(C)[C@@H](CC(C)C)C(=O)N[C@@H](C(C)C)C(=O)N(C)[C@@H](CC(C)C)C(=O)N[C@@H](C)C(=O)N[C@H](C)C(=O)N(C)[C@@H](CC(C)C)C(=O)N(C)[C@@H](CC(C)C)C(=O)N(C)[C@H](C(C)C)C(=O)N1C` [CsH, Cyclosporin H], the “transduction percentage (eGFP positive cells)” value reads like this: (HepG2, LV.ET.eGFP.142-3pT MOI 0.3, 4 µM CsH during transduction) 37.67%; (HepG2, LV.ET.eGFP.142-3pT MOI 0.3, 16 µM CsH during transduction) 51.5%. In addition, the “percentage of transduced cells” value (HepG2, LV.ET.eGFP.142-3pT MOI 0.3, 16 µM CsH 16 hours pre-treatment and during transduction) was found to be 31.03%.
